Experimental data from US9029384B2, “Phosphatidylinositol 3-kinase inhibitors” (Gilead Calistoga LLC, priority 2012, dated 2015).
Like-named read-outs stand apart in the source and are kept apart here.

Legend:
[1] = molecular target: T1, PI3Kδ (Homo sapiens, UniProt O00329); assay: Enzymatic activity of PI3K isoforms, TR-FRET assay (PIP3 formation); type: biochemical; conditions: PI3Kδ; TR-FRET, 2×Km ATP, 10 μM PIP2; read-out: IC50
T1 construct: made in house
Method in brief: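 Recombinant heterodimeric class I PI3K; PIP3 product measured by TR-FRET competition with labelled PIP3 for Eu-GRP-1 PH domain. Reaction 30 min at 25 °C, stopped with 10 mM EDTA.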

[2] = system: basophils; assay: Basophil activation in human whole blood (Flow2 CAST kit, CD63 positive cells); type: cell-based
Method in brief: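 Human whole blood (K2-EDTA) preincubated 60 minutes at 37° C with compound serial dilutions or DMSO (0.3% final), then stimulated with anti-FcεRI mAb or fMLP and stained for CD63/CCR3. Percent CD63+ among ≥200 CCR3-high basophils by flow cytometry, normalized to stimulated vehicle as 100%. EC50 from four-parameter fits, geometric means in nM, concentrations corrected for reagent dilution.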

[3] = Hepatocyte stability, 1% final DMSO, 2 μM substrate (t1/2^a); type: in vitro ADME; conditions: human, cryopreserved hepatocytes, TA with 1% final DMSO, 2 μM substrate, samples at 0, 1, 2, 4 hours; read-out: human hepatocyte t½^a
Protocol: This assay was used to evaluate the metabolic stability of test articles (TA) following incubation in cryopreserved hepatocytes by monitoring parent drug disappearance via […]. The TA with 1% final DMSO concentration was incubated with 1 million hepatocytes/ml at 2 μM substrate in duplicate. The incubation was carried out at 37° C. with 5% CO2 and saturating humidity.

[4] = Hepatocyte stability, 0.01% final DMSO, 1 μM substrate (t1/2^b); type: in vitro ADME; conditions: human, hepatocytes, TA with 0.01% final DMSO
Protocol: Alternatively, assay reagents and/or conditions can be modified in determining the inhibitory activities to PI3K isomers. In additional studies, similar assay using TA and 0.01% final DMSO concentration were incubated with 1 million hepatocytes/mL at 1 μM substrate in duplicate. The incubation was carried out at 37° C. with 5% CO2 and saturating humidity.

[5] = Homo sapiens, basophils activated with anti-FcεRI mAb or fMLP, geometric mean
[6] = 1 μM substrate, samples at 0, 1, 3, 6 hours, read-out: human hepatocyte t½^b

T1 sequence (O00329 whole entry, canonical isoform): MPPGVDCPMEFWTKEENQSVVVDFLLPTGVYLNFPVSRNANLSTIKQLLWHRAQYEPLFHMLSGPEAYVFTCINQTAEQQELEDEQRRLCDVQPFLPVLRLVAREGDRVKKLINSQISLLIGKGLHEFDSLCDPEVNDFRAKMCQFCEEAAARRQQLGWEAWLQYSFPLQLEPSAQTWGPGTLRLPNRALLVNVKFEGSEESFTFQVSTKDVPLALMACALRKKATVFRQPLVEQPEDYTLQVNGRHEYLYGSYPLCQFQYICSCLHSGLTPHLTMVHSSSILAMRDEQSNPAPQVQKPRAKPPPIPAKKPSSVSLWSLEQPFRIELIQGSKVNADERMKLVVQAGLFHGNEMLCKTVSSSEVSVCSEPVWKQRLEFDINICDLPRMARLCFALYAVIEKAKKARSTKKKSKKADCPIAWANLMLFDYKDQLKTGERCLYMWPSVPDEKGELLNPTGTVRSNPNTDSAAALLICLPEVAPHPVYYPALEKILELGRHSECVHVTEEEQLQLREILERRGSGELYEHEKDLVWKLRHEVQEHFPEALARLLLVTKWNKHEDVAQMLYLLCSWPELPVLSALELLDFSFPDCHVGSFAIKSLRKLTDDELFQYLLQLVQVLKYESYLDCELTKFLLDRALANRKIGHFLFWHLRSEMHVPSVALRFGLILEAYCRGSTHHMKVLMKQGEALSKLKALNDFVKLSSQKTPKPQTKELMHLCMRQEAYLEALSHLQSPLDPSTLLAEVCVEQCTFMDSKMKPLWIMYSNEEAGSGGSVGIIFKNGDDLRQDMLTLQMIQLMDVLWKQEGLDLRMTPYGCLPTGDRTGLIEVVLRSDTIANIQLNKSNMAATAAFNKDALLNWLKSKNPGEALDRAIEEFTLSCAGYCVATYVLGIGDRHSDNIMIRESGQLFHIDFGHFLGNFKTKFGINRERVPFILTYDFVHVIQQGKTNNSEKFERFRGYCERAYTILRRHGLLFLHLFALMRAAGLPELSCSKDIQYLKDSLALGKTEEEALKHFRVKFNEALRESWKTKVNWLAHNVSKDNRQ
T1 sequence (P27986 whole entry partner, canonical isoform): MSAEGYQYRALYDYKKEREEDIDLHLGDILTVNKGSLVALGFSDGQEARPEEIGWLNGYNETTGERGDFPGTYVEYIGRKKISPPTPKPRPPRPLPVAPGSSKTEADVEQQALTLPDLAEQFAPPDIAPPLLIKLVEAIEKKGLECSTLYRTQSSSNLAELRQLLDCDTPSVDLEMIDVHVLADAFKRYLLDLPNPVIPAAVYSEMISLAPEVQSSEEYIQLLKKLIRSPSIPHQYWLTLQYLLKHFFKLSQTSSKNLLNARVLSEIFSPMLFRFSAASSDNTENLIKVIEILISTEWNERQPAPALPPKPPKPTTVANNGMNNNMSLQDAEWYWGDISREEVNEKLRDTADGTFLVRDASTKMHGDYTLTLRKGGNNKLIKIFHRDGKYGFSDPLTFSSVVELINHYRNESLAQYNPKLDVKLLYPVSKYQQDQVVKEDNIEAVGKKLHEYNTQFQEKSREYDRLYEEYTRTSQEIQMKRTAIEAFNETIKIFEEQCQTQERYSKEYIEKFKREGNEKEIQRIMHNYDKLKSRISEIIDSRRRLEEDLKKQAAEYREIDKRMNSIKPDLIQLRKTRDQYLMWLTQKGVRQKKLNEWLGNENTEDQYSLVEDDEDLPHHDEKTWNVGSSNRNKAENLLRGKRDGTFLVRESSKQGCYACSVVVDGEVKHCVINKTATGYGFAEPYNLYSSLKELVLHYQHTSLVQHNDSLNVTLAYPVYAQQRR

SMILES	IC50 [1] [nM]	EC50 [2, 5] [nM]	half-life at 2 μM [3] [h]	half-life at 1 μM [4, 6] [h]	half-life at 1 μM ([4]; human hepatocytes, read-out: t1/2^b) [h]	EC50 ([2]; Homo sapiens, basophil activation) [nM]	EC50 ([2]; basophils activated with anti-FcεRI mAb or fMLP, geometric mean) [nM]
Cc1ccc(Cl)c2c(=O)n(-c3ccccc3)c(C(C)Nc3nc(N)nc(N)c3C#N)nc12 (single isomer, unassigned) [Compound 4a]	< 1	1 to 10	6 to 10	–	–	–	–
Cc1ccc(Cl)c2c(=O)n(-c3cccc(Cl)c3)c(C(C)Nc3nc(N)nc(N)c3C#N)nc12 (single isomer, unassigned) [Compound 5a]	< 1	1 to 10	1 to 3	–	–	–	–
CC(Nc1nc(N)nc(N)c1C#N)c1nc2c(F)ccc(Cl)c2c(=O)n1-c1cc(F)cc(F)c1 (single isomer, unassigned) [Compound 15a]	< 1	< 1	3 to 6	–	–	–	–
Cc1cccc2nc(C(C)Nc3nc(N)nc(N)c3C#N)n(-c3cc(F)cc(F)c3)c(=O)c12 (single isomer, unassigned) [Compound 18a]	< 1	< 1	3 to 6	–	–	–	–
CCC(Nc1nc(N)nc(N)c1C#N)c1nc2cccc(C)c2c(=O)n1-c1cc(F)cc(F)c1 (single isomer, unassigned) [Compound 19a]	< 1	1 to 10	3 to 6	–	–	–	–
CC(Nc1nc(N)nc(N)c1C#N)c1nc2cccc(C(F)F)c2c(=O)n1-c1cccc(C#N)c1 (single isomer, unassigned) [Compound 63a]	1 to 10	1 to 10	–	> 10	–	–	–
CC(Nc1nc(N)nc(N)c1C#N)c1nc2c(Cl)cc(F)cc2c(=O)n1-c1cc(F)cc(F)c1 (single isomer, unassigned) [Compound 89a]	1 to 10	1 to 10	–	6 to 10	–	–	–
CC(Nc1nc(N)nc(N)c1C#N)c1nc2cccc(C(N)=O)c2c(=O)n1-c1cc(F)cc(F)c1 (single isomer, unassigned) [Compound 91a]	10 to 50	10 to 50	–	> 10	–	–	–
CC(Nc1nc(N)nc(N)c1C#N)c1nc2cccc(S(C)(=O)=O)c2c(=O)n1-c1cc(F)cc(C(F)F)c1 (single isomer, unassigned) [Compound 98a]	10 to 50	> 50	–	3 to 6	–	–	–
COc1cccc(-n2c(C(C)Nc3nc(N)nc(N)c3C#N)nc3cccc(Cl)c3c2=O)c1C (single isomer, unassigned) [Compound 109a-2]	< 1	1 to 10	–	1 to 3	–	–	–
CC(Nc1nc(N)nc(N)c1C#N)c1nc2cccc(C#N)c2c(=O)n1-c1cc(F)cc(F)c1 (single isomer, unassigned) [Compound 112a]	1 to 10	1 to 10	–	> 10	–	–	–
CC(Nc1nc(N)nc(N)c1C#N)c1nc2cccc(Cl)c2c(=O)n1-c1cccc(CC(F)F)c1 (single isomer, unassigned) [Compound 120a]	1 to 10	1 to 10	–	1 to 3	–	–	–
CC(Nc1nc(N)nc(N)c1Cl)c1nc2c(F)ccc(Cl)c2c(=O)n1-c1ccccc1 (single isomer, unassigned) [Compound 127a]	1 to 10	1 to 10	–	1 to 3	–	–	–
COCC(Nc1nc(N)nc(N)c1C#N)c1nc2cccc(Cl)c2c(=O)n1-c1cc(F)cc(F)c1 (single isomer, unassigned) [Compound 135a]	1 to 10	1 to 10	–	1 to 3	–	–	–
CC(Nc1nc(N)nc(N)c1C#N)c1nc2ccc(F)c(Cl)c2c(=O)n1-c1cc(F)cc(F)c1 (single isomer, unassigned) [Compound 140a]	1 to 10	1 to 10	–	3 to 6	–	–	–
CC(Nc1nc(N)nc(N)c1C#N)c1nc2cccc(Cl)c2c(=O)n1-c1c(F)cccc1F (single isomer, unassigned) [Compound 145a]	1 to 10	1 to 10	–	6 to 10	–	–	–
CC(Nc1nc(N)nc(N)c1C#N)c1nc2c(F)ccc(F)c2c(=O)n1-c1cccc(C#N)c1 (single isomer, unassigned) [Compound 149a]	10 to 50	1 to 10	–	6 to 10	–	–	–
CCC(Nc1nc(N)nc(N)c1C#N)c1nc2c(F)ccc(F)c2c(=O)n1-c1ccccc1 (single isomer, unassigned) [Compound 150a]	1 to 10	1 to 10	–	3 to 6	–	–	–

SMILES	IC50 [1] [nM]	EC50 [2, 5] [nM]	half-life at 2 μM [3] [h]	half-life at 1 μM [4, 6] [h]	half-life at 1 μM ([4]; human hepatocytes, read-out: t1/2^b) [h]	EC50 ([2]; Homo sapiens, basophil activation) [nM]	EC50 ([2]; basophils activated with anti-FcεRI mAb or fMLP, geometric mean) [nM]
CCC(Nc1nc(N)nc(N)c1C#N)c1nc2c(F)ccc(F)c2c(=O)n1-c1cccc(F)c1 (single isomer, unassigned) [Compound 151a]	1 to 10	1 to 10	–	3 to 6	–	–	–
CCC(Nc1nc(N)nc(N)c1C#N)c1nc2c(F)ccc(F)c2c(=O)n1-c1cccc(C#N)c1 (single isomer, unassigned) [Compound 152a]	10 to 50	1 to 10	–	3 to 6	–	–	–
CC(Nc1nc(N)nc(N)c1C#N)c1nc2c(C#N)cc(F)cc2c(=O)n1-c1ccccc1 (single isomer, unassigned) [Compound 155a]	1 to 10	10 to 50	–	> 10	–	–	–
CC(Nc1nc(N)nc(N)c1C#N)c1nc2c(C#N)cccc2c(=O)n1-c1cccc(C(F)F)c1 (single isomer, unassigned) [Compound 160a]	1 to 10	1 to 10	–	3 to 6	–	–	–
CCCC(Nc1nc(N)nc(N)c1C#N)c1nc2cccc(F)c2c(=O)n1-c1cc(F)cc(F)c1 (single isomer, unassigned) [Compound 175a]	1 to 10	1 to 10	–	6 to 10	–	–	–
CC(Nc1nc(N)nc(N)c1C#N)c1nc2ccc(F)c(Cl)c2c(=O)n1-c1cccc(C#N)c1 (single isomer, unassigned) [Compound 176a]	10 to 50	1 to 10	–	> 10	–	–	–
CCC(Nc1nc(N)nc(N)c1C#N)c1nc2ccc(F)cc2c(=O)n1-c1cccc(F)c1 (single isomer, unassigned) [Compound 178a]	1 to 10	1 to 10	–	> 10	–	–	–
CCC(Nc1nc(N)nc(N)c1C#N)c1nc2cccc(F)c2c(=O)n1-c1cccc(F)c1 (single isomer, unassigned) [Compound 179a]	1 to 10	1 to 10	–	6 to 10	–	–	–
CC(Nc1nc(N)nc(N)c1C#N)c1nc2c(F)ccc(Cl)c2c(=O)n1-c1cccc(C#N)c1 (single isomer, unassigned) [Compound 181a]	1 to 10	< 1	–	6 to 10	–	–	–
CC(Nc1nc(N)nc(N)c1C#N)c1nc2cccc(F)c2c(=O)n1-c1cccc(F)c1 (single isomer, unassigned) [Compound 182a]	1 to 10	1 to 10	–	> 10	> 20	< 2	–
CC(Nc1nc(N)nc(N)c1C(N)=O)c1nc2cccc(Cl)c2c(=O)n1-c1ccccc1 (single isomer, unassigned) [Compound 183a]	< 1	10 to 50	–	6 to 10	–	–	–
COc1cccc(-n2c(C(C)Nc3nc(N)nc(N)c3C#N)nc3cccc(Cl)c3c2=O)c1 (single isomer, unassigned) [Compound 185a]	< 1	< 1	–	1 to 3	–	–	–
Cc1ccc(C(F)F)cc1-n1c(C(C)Nc2nc(N)nc(N)c2C#N)nc2cccc(Cl)c2c1=O (single isomer, unassigned) [Compound 188a-2]	< 1	–	–	1 to 3	–	–	< 1
COc1cc(C(F)F)cc(-n2c(C(C)Nc3nc(N)nc(N)c3C#N)nc3cccc(Cl)c3c2=O)c1 (single isomer, unassigned) [Compound 190a]	1 to 10	10 to 50	–	1 to 3	–	–	–
CC(Nc1nc(N)nc(N)c1C#N)c1nc2cccc(Cl)c2c(=O)n1-c1cc(F)cc(OC(F)(F)F)c1 (single isomer, unassigned) [Compound 193a]	1 to 10	1 to 10	–	1 to 3	–	–	–
C[C@H](Nc1nc(N)nc(N)c1C#N)c1nc2cccc(F)c2c(=O)n1-c1cccc(C(F)F)c1 [Compound 121a, (S)-2,4-diamino-6-(1-(3-(3-(difluoromethyl)phenyl)-5-fluoro-4-oxo-3,4-dihydroquinazolin-2-yl)ethylamino)pyrimidine-5-carbonitrile]	1 to 10	1 to 10	–	3 to 6	–	–	–
C[C@H](Nc1nc(N)nc(N)c1C#N)c1nc2c(C#N)cc(F)cc2c(=O)n1-c1cccc(F)c1 [Compound 154a, (S)-2-(1-((2,6-diamino-5-cyanopyrimidin-4-yl)amino)ethyl)-6-fluoro-3-(3-fluorophenyl)-4-oxo-3,4-dihydroquinazoline-8-carbonitrile]	1 to 10	1 to 10	–	> 10	–	–	–
